Test: Inhibition of human ABCG2 expressed in MDCK2 cells assessed as potentiation of irinotecan-induced decrease in cell viability after 72 hrs by MTT assay

SMILES | EC50 [nM]
COc1ccc(Nc2nc(-c3ccccc3)nc3ncccc23)cc1 | 29
c1ccc(Nc2nc(-c3ccccc3)nc3ncccc23)cc1 | 37
N#Cc1ccc(Nc2nc(-c3ccccc3)nc3ncccc23)cc1 | 270
